Where two headings read alike, the source gives them in different places.
Experiments:
LX-1 lung carcinoma = settings: literature; cited from earlier work
[1] = test system: solid tumor xenografts, human and murine leukemia, doxorubicin resistant cell lines, colon carcinoma cells; settings: cited from earlier work
[2] = cited from earlier work
[3] = test system: MX-1 human breast carcinoma; settings: literature; cited from earlier work
B16 melanoma [4] = test: In vivo tumor inhibiting activity vs. B16 melanoma in B6D2F1 mice; settings: q.d. × 5, i.p., day 7
Experimental: B16 Melanoma: B6D2F1 mice received i.p. inocula of B16 murine melanoma brei prepared from B16 tumors growing subcutaneously in mice (day 0). On day 1, rumored mice were treated with drugs or vehicle control; the route of drug administration and schedule were selected as appropriate for the study in question. If dosing information for agents was not available, the maximum tolerated dose (MTD) was determined in initial dose finding experiments in non-rumored mice. In a typical experiment, drugs were given at their MTD and 1/2 MTD doses i.p. on a daily×5 schedule.
The mean survival times of all groups were calculated, and results were expressed as mean survival of treated mice/mean survival of control mice (T/C)×100%. A T/C value of 150 means that the mice in the treated group lived 50% longer than those of the control group; this is sometimes referred to as the increase in life space, or ILS value.
Mice that survived for 60 days were considered long term survivors, or cures, in the B16 model. The universally accepted cut-off for activity in this model, which has been used for years by the National Cancer Institute, is T/C=125. Conventional use of B16 over the years has set the following levels of activity: T/C<125, no activity; T/C=125-150, weak activity; T/C=150-200, modest activity; T/C=200-300, high activity; T/C>300, with long term survivors, excellent, curative activity (Goldin et al., 1981).
Statistics were performed on the data using primarily the log rank p-value test.

[5] = test system: DLD-2 human colon adenocarcinoma; settings: literature; cited from earlier work
B16 melanoma [6] = settings: Chen et al., 1993; cited from earlier work

Row | SMILES | anti-tumor efficacy in vivo against LX-1 lung carcinoma (LX-1 lung carcinoma) | toxicity ([1]; literature) | anti-tumor efficacy in vivo ([1]; solid tumor xenografts, leukemia, doxorubicin resistant lines, colon carcinoma) | water solubility ([2]; reported) [µg/mL] | in vivo anti-tumor activity against MX-1 [3] | Wt. Ch. (Day 7) (B16 melanoma [4]; 5 mg/kg) | Wt. Ch. (Day 7) (B16 melanoma [4]; 10 mg/kg) [%] | in vivo anti-tumor activity against DLD-2 [5] | activity against B16 melanoma (B16 melanoma [6]) | water solubility ([2]; Sun et al., 1993) [µg/mL]
1 | C[C@H](CNCCNC[C@@H](C)N1C(=O)c2cccc3cc([N+](=O)[O-])cc(c23)C1=O)N1C(=O)c2cccc3cc([N+](=O)[O-])cc(c23)C1=O [DMP840, (R,R)-2,2'[1,2-ethanediylbis[imino(1-methyl-2,1-ethanediyl)]]-bis[5-nitro-1H-benz[de]isoquinoline-1,3-(2H)-dione] dimethanesulfonate] | anti-tumor efficacy in vivo | no irreversible toxicities | anti-tumor efficacy in vivo | 3400 | anti-tumor efficacy in vivo | +4.6% | -0.33 | anti-tumor efficacy in vivo | – | –
2 | CS(=O)(=O)O.O=C1c2cccc3cc([N+](=O)[O-])cc(c23)C(=O)N1CCCCNCCCN1C(=O)c2cccc3cc([N+](=O)[O-])cc(c23)C1=O [XB596] | – | – | – | – | demonstrated in vivo anti-tumor activity | – | – | demonstrated in vivo anti-tumor activity | ineffective against B16 melanoma | 45

Source: patent US5604095A, “Unsymmetrically linked bisnaphthalimides as antitumor agents” (Cancer Therapy & Research Center, priority 1994, dated 1997)
